From article PMC6109843, “Novel Quinazolinone Inhibitors of ALK2 Flip between Alternate Binding Modes: Structure–Activity Relationship, Structural Characterization, Kinase Profiling, and Cellular Proof of Concept” (Journal of Medicinal Chemistry, 2018)

Columns and labels:
Assay in all cases: DiscoverX scanEDGE kinase panel
Type in all cases: binding
Details in all cases: Cmpd Conc 1000 nM, read-out: % Ctrl
TIE2 = molecular target: T1, TIE2 (Homo sapiens, UniProt Q02763)
T1 construct: purchased DiscoverX (DiscoveRx) KINOMEscan scanEDGE / KdELECT
Source text: (§1) We hypothesized that inhibitors of the normal and flipped modes would display distinct selectivity profiles.
(§2) 1. 16 and 21 kinome selectivity data
(§3) (P – phosphorylated; nP – nonphosphorylated; % Ctrl values show the % of DNAEtagged
(§4) kinase which was not displaced from a solid supported ligand by a test compound relative to
(§5) untreated control, quantified by qPCR).
(§6) Please note: ALKs 1, 2, 3, 4, 5 and 6 are listed by their gene symbols: ACVRL1 (ALK1), ACVR1
(§7) (ALK2), BMPR1A (ALK3), ACVR1B (ALK4), TGFBR1 (ALK5) and BMPR1B (ALK6)
(§8) Cmpd DiscoverX Gene Symbol Entrez Gene Symbol % Ctrl Cmpd Conc (nM)

FGFR3 = molecular target: T2, FGFR3 (Homo sapiens, UniProt P22607)
T2 construct: purchased DiscoverX (DiscoveRx) KINOMEscan scanEDGE / KdELECT
Source text: as §1, §2, §3, §4, §5, §6, §7, §8

ALK = molecular target: T3, ALK (Homo sapiens, UniProt Q9UM73)
T3 construct: purchased DiscoverX (DiscoveRx) KINOMEscan scanEDGE / KdELECT
Source text: as §1, §2, §3, §4, §5, §6, §7, §8

BMPR2 = molecular target: T4, BMPR2 (Homo sapiens, UniProt Q13873)
T4 construct: purchased DiscoverX (DiscoveRx) KINOMEscan scanEDGE / KdELECT
Source text: as §1, §2, §3, §4, §5, §6, §7, §8

ULK2 = molecular target: T5, ULK2 (Homo sapiens, UniProt Q8IYT8)
T5 construct: purchased DiscoverX (DiscoveRx) KINOMEscan scanEDGE / KdELECT
Source text: as §1, §2, §3, §4, §5, §6, §7, §8

SNARK = molecular target: T6, SNARK (Homo sapiens, UniProt Q9H093)
T6 construct: purchased DiscoverX (DiscoveRx) KINOMEscan scanEDGE / KdELECT
Source text: as §1, §2, §3, §4, §5, §6, §7, §8

PIK3CG = molecular target: T7, PIK3CG (Homo sapiens, UniProt P48736)
T7 construct: purchased DiscoverX (DiscoveRx) KINOMEscan scanEDGE / KdELECT
Source text: as §1, §2, §3, §4, §5, §6, §7, §8

ADCK3 = molecular target: T8, ADCK3 (Homo sapiens, UniProt Q8NI60)
T8 construct: purchased DiscoverX (DiscoveRx) KINOMEscan scanEDGE / KdELECT
Source text: as §1, §2, §3, §4, §5, §6, §7, §8

KIT = molecular target: T9, KIT (Homo sapiens, UniProt P10721)
T9 construct: purchased DiscoverX
Source text: as §1, §2, §3, §4, §5, §6, §7, §8

PIK3C2B = molecular target: T10, PIK3C2B (Homo sapiens, UniProt O00750)
T10 construct: purchased DiscoverX (DiscoveRx) KINOMEscan scanEDGE / KdELECT
Source text: as §1, §2, §3, §4, §5, §6, §7, §8

TRKA = molecular target: T11, TRKA (Homo sapiens, UniProt P04629)
T11 construct: purchased DiscoverX (DiscoveRx) KINOMEscan scanEDGE / KdELECT
Source text: as §1, §2, §3, §4, §5, §6, §7, §8

RAF1 = molecular target: T12, RAF1 (Homo sapiens, UniProt P04049)
T12 construct: purchased DiscoverX
Source text: as §1, §2, §3, §4, §5, §6, §7, §8

PLK1 = molecular target: T13, PLK1 (Homo sapiens, UniProt P53350)
T13 construct: purchased DiscoverX (DiscoveRx) KINOMEscan scanEDGE / KdELECT
Source text: as §1, §2, §3, §4, §5, §6, §7, §8

BMPR1B (ALK6) = molecular target: T14, BMPR1B (ALK6) (Homo sapiens, UniProt O00238)
T14 construct: purchased DiscoverX (DiscoveRx) KINOMEscan scanEDGE / KdELECT
Source text: as §1, §2, §3, §4, §5, §6, §7, §8

AURKA = molecular target: T15, AURKA (Homo sapiens, UniProt O14965)
T15 construct: purchased DiscoverX (DiscoveRx) KINOMEscan scanEDGE / KdELECT
Source text: as §1, §2, §3, §4, §5, §6, §7, §8

PIM1 = molecular target: T16, PIM1 (Homo sapiens, UniProt P11309)
T16 construct: purchased DiscoverX (DiscoveRx) KINOMEscan scanEDGE / KdELECT
Source text: as §1, §2, §3, §4, §5, §6, §7, §8

PKACEalpha = molecular target: T17, PKACEalpha (Homo sapiens, UniProt P17612)
T17 construct: purchased DiscoverX (DiscoveRx) KINOMEscan scanEDGE / KdELECT
Source text: as §1, §2, §3, §4, §5, §6, §7, §8

PIM3 = molecular target: T18, PIM3 (Homo sapiens, UniProt Q86V86)
T18 construct: purchased DiscoverX (DiscoveRx) KINOMEscan scanEDGE / KdELECT
Source text: as §1, §2, §3, §4, §5, §6, §7, §8

PAK1 = molecular target: T19, PAK1 (Homo sapiens, UniProt Q13153)
T19 construct: purchased DiscoverX (DiscoveRx) KINOMEscan scanEDGE / KdELECT
Source text: as §1, §2, §3, §4, §5, §6, §7, §8

ACVR2A = molecular target: T20, ACVR2A (Homo sapiens, UniProt P27037)
T20 construct: purchased DiscoverX (DiscoveRx) KINOMEscan scanEDGE / KdELECT
Source text: as §1, §2, §3, §4, §5, §6, §7, §8

ABL1(T315I)EP = molecular target: T21, ABL1(T315I)EP (Homo sapiens, UniProt P00519, T315I)
T21 construct: purchased DiscoverX (DiscoveRx) KINOMEscan scanEDGE / KdELECT
Source text: as §1, §2, §3, §4, §5, §6, §7, §8

LCK = molecular target: T22, LCK (Homo sapiens, UniProt P06239)
T22 construct: purchased DiscoverX (DiscoveRx) KINOMEscan scanEDGE / KdELECT
Source text: as §1, §2, §3, §4, §5, §6, §7, §8

CDK2 = molecular target: T23, CDK2 (Homo sapiens, UniProt P24941)
T23 construct: purchased DiscoverX (DiscoveRx) KINOMEscan scanEDGE / KdELECT
Source text: as §1, §2, §3, §4, §5, §6, §7, §8

CDK11 = molecular target: T24, CDK11 (Homo sapiens, UniProt Q9BWU1)
T24 construct: purchased DiscoverX (DiscoveRx) KINOMEscan scanEDGE / KdELECT
Source text: as §1, §2, §3, §4, §5, §6, §7, §8

YANK3 = molecular target: T25, YANK3 (Homo sapiens, UniProt Q86UX6)
T25 construct: purchased DiscoverX (DiscoveRx) KINOMEscan scanEDGE / KdELECT
Source text: as §1, §2, §3, §4, §5, §6, §7, §8

TSSK1B = molecular target: T26, TSSK1B (Homo sapiens, UniProt Q9BXA7)
T26 construct: purchased DiscoverX (DiscoveRx) KINOMEscan scanEDGE / KdELECT
Source text: as §1, §2, §3, §4, §5, §6, §7, §8

CDK7 = molecular target: T27, CDK7 (Homo sapiens, UniProt P50613)
T27 construct: purchased DiscoverX (DiscoveRx) KINOMEscan scanEDGE / KdELECT
Source text: as §1, §2, §3, §4, §5, §6, §7, §8

DCAMKL1 = molecular target: T28, DCAMKL1 (Homo sapiens, UniProt O15075)
T28 construct: purchased DiscoverX (DiscoveRx) KINOMEscan scanEDGE / KdELECT
Source text: as §1, §2, §3, §4, §5, §6, §7, §8

AKT2 = molecular target: T29, AKT2 (Homo sapiens, UniProt P31751)
T29 construct: purchased DiscoverX (DiscoveRx) KINOMEscan scanEDGE / KdELECT
Source text: as §1, §2, §3, §4, §5, §6, §7, §8

MLK1 = molecular target: T30, MLK1 (Homo sapiens, UniProt P80192)
T30 construct: purchased DiscoverX (DiscoveRx) KINOMEscan scanEDGE / KdELECT
Source text: as §1, §2, §3, §4, §5, §6, §7, §8

JNK1 = molecular target: T31, JNK1 (Homo sapiens, UniProt P45983)
T31 construct: purchased DiscoverX (DiscoveRx) KINOMEscan scanEDGE / KdELECT
Source text: as §1, §2, §3, §4, §5, §6, §7, §8

CDK9 = molecular target: T32, CDK9 (Homo sapiens, UniProt P50750)
T32 construct: purchased DiscoverX (DiscoveRx) KINOMEscan scanEDGE / KdELECT
Source text: as §1, §2, §3, §4, §5, §6, §7, §8

TNK1 = molecular target: T33, TNK1 (Homo sapiens, UniProt Q13470)
T33 construct: purchased DiscoverX (DiscoveRx) KINOMEscan scanEDGE / KdELECT
Source text: as §1, §2, §3, §4, §5, §6, §7, §8

SRC = molecular target: T34, SRC (Homo sapiens, UniProt P12931)
T34 construct: purchased DiscoverX (DiscoveRx) KINOMEscan scanEDGE / KdELECT
Source text: as §1, §2, §3, §4, §5, §6, §7, §8

ROCK2 = molecular target: T35, ROCK2 (Homo sapiens, UniProt O75116)
T35 construct: purchased DiscoverX (DiscoveRx) KINOMEscan scanEDGE / KdELECT
Source text: as §1, §2, §3, §4, §5, §6, §7, §8

PCTK1 = molecular target: T36, PCTK1 (Homo sapiens, UniProt Q00536)
T36 construct: purchased DiscoverX (DiscoveRx) KINOMEscan scanEDGE / KdELECT
Source text: as §1, §2, §3, §4, §5, §6, §7, §8

CSNK1D = molecular target: T37, CSNK1D (Homo sapiens, UniProt P48730)
T37 construct: purchased DiscoverX (DiscoveRx) KINOMEscan scanEDGE / KdELECT
Source text: as §1, §2, §3, §4, §5, §6, §7, §8

PAK4 = molecular target: T38, PAK4 (Homo sapiens, UniProt O96013)
T38 construct: purchased DiscoverX (DiscoveRx) KINOMEscan scanEDGE / KdELECT
Source text: as §1, §2, §3, §4, §5, §6, §7, §8

KIT(D816H) = molecular target: T39, KIT(D816H) (Homo sapiens, UniProt P10721, D816H)
T39 construct: purchased DiscoverX (DiscoveRx) KINOMEscan scanEDGE / KdELECT
Source text: as §1, §2, §3, §4, §5, §6, §7, §8

PIK3CA = molecular target: T40, PIK3CA (Homo sapiens, UniProt P42336)
T40 construct: purchased DiscoverX (DiscoveRx) KINOMEscan scanEDGE / KdELECT
Source text: as §1, §2, §3, §4, §5, §6, §7, §8

T27 sequence (P50613 whole entry): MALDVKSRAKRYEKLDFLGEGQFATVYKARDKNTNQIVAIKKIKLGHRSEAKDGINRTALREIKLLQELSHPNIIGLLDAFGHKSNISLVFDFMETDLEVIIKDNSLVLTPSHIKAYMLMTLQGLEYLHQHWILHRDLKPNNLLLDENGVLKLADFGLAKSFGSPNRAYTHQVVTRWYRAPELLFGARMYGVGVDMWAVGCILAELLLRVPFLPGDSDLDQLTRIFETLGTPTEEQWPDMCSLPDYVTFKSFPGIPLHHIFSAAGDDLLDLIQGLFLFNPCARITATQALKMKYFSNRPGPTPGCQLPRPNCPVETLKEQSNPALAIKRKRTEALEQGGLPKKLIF
T33 sequence (Q13470 whole entry): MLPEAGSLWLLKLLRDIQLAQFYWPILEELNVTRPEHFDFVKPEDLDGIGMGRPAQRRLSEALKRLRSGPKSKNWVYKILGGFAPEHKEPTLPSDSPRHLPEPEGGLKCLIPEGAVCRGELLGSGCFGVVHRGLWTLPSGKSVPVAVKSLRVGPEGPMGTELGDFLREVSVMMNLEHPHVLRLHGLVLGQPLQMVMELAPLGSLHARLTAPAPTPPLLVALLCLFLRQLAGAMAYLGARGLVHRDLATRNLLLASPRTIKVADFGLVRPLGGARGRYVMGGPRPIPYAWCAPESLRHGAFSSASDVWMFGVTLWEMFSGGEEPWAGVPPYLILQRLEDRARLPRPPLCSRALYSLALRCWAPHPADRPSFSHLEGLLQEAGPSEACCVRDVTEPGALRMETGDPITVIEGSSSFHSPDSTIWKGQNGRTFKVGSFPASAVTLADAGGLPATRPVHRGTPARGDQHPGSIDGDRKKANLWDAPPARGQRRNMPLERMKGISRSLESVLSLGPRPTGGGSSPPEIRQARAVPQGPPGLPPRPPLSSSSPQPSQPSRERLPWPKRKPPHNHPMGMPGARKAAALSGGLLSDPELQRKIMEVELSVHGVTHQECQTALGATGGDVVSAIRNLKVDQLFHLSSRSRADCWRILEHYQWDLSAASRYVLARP
T24 sequence (Q9BWU1 whole entry): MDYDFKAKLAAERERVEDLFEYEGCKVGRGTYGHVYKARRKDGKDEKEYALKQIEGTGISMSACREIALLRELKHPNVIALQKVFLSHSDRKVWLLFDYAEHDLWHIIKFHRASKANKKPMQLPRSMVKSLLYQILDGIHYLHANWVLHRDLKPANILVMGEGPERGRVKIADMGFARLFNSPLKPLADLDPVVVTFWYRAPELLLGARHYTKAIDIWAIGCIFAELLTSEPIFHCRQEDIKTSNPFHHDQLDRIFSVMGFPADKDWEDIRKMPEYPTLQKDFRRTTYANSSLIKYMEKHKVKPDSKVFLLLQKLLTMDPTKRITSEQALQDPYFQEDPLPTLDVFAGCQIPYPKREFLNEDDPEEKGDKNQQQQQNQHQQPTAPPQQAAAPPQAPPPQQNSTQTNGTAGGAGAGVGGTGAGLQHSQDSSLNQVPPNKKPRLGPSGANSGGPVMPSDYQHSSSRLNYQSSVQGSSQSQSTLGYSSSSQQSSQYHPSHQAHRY
T12 sequence (P04049 whole entry): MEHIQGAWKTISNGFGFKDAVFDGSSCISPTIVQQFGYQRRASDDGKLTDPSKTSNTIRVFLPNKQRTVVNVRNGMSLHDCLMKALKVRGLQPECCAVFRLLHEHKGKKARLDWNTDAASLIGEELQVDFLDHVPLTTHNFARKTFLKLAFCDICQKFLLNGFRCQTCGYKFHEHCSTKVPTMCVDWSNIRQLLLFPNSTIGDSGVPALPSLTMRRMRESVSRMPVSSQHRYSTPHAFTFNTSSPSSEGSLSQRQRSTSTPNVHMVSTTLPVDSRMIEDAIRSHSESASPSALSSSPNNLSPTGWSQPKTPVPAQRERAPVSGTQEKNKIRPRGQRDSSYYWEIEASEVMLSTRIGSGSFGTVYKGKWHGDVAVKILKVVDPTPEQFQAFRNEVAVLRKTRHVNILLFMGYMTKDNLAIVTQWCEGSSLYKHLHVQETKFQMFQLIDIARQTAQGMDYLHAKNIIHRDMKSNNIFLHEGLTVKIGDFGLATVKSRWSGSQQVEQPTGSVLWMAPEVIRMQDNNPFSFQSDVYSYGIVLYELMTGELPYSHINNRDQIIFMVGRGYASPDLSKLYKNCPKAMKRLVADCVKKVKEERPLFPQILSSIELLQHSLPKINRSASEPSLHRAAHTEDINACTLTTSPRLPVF
T36 sequence (Q00536 whole entry): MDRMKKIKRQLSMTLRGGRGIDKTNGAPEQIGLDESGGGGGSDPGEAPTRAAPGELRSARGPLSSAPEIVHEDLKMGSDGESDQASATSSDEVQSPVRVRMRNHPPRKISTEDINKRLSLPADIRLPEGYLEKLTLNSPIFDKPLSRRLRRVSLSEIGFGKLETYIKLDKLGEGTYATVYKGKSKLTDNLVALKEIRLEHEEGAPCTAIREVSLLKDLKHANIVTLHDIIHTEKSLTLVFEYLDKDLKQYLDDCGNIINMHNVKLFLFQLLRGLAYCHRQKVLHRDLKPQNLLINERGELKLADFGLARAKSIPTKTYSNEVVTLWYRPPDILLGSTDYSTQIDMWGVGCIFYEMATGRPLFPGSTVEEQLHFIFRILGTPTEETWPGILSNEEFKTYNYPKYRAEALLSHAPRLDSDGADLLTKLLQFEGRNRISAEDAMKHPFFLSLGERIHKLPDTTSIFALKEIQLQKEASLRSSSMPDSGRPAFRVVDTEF
T26 sequence (Q9BXA7 whole entry): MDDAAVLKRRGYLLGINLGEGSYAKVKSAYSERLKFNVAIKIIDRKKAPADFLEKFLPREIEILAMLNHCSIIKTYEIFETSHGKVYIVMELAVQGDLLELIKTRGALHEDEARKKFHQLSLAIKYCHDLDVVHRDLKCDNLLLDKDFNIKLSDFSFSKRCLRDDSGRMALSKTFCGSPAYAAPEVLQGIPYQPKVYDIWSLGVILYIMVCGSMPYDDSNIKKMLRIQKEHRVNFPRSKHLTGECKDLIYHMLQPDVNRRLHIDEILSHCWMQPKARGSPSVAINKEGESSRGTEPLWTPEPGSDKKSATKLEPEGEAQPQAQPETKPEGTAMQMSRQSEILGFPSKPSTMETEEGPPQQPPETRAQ
T5 sequence (Q8IYT8 whole entry): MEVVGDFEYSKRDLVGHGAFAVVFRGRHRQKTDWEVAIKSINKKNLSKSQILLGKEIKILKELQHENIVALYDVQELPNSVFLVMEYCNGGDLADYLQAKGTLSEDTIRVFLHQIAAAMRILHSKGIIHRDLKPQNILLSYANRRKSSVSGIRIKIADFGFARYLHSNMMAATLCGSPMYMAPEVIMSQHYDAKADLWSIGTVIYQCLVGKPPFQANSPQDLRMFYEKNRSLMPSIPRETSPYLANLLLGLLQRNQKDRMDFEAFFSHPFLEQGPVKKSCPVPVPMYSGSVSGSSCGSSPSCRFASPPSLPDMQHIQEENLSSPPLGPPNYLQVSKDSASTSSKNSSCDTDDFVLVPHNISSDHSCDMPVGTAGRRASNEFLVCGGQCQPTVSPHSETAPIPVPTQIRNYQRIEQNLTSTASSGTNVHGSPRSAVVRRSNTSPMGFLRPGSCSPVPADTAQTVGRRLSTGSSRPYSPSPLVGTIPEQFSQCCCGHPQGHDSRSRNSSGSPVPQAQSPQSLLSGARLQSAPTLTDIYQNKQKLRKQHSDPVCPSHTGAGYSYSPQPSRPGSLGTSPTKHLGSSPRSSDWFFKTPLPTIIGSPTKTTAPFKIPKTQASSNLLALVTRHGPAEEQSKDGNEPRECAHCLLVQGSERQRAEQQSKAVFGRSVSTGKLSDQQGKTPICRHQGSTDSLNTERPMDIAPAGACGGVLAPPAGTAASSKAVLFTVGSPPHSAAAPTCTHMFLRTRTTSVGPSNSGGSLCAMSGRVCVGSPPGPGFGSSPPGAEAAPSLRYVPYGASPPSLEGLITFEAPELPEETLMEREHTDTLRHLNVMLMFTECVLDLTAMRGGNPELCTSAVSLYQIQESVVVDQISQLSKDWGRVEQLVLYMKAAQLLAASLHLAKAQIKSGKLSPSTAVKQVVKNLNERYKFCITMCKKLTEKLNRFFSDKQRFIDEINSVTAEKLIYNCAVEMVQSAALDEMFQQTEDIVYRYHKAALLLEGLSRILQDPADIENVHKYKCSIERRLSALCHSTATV
T37 sequence (P48730 whole entry): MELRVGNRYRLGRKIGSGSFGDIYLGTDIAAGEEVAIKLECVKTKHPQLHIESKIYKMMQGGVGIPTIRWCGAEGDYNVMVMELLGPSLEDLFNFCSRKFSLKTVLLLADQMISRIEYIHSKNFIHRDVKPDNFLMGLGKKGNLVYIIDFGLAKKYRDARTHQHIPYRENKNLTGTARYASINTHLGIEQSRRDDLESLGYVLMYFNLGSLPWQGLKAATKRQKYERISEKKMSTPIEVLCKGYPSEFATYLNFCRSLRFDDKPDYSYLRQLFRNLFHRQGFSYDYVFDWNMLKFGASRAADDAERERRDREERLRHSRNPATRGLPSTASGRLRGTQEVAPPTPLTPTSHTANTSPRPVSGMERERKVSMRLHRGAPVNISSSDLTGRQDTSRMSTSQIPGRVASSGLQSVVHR
T14 sequence (O00238 14-502): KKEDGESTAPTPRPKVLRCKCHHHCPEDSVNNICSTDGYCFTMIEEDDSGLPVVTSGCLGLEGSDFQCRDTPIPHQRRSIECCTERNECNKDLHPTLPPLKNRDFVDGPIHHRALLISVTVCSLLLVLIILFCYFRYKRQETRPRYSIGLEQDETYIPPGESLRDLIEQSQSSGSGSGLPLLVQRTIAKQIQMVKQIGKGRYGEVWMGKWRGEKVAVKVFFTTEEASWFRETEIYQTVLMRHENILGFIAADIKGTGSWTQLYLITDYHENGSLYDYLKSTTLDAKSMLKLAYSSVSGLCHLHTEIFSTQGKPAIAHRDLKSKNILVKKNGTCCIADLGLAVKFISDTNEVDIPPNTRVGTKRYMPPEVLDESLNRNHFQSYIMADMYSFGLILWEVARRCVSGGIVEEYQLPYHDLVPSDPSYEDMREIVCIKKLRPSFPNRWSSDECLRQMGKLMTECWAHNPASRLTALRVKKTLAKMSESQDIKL

- remaining binding at 1 µM (TIE2): 89%
- remaining binding at 1 µM (FGFR3): 100%
- remaining binding at 1 µM (ALK): 100%
- remaining binding at 1 µM (BMPR2): 76%
- remaining binding at 1 µM (ULK2): 77%
- remaining binding at 1 µM (SNARK): 100%
- remaining binding at 1 µM (PIK3CG): 98%
- remaining binding at 1 µM (ADCK3): 97%
- remaining binding at 1 µM (KIT): 97%
- remaining binding at 1 µM (PIK3C2B): 98%
- remaining binding at 1 µM (TRKA): 93%
- remaining binding at 1 µM (RAF1): 25%
- remaining binding at 1 µM (PLK1): 75%
- remaining binding at 1 µM (BMPR1B (ALK6)): 1.6%
- remaining binding at 1 µM (AURKA): 100%
- remaining binding at 1 µM (PIM1): 60%
- remaining binding at 1 µM (PKACEalpha): 100%
- remaining binding at 1 µM (PIM3): 98%
- remaining binding at 1 µM (PAK1): 96%
- remaining binding at 1 µM (ACVR2A): 83%
- remaining binding at 1 µM (ABL1(T315I)EP): 97%
- remaining binding at 1 µM (LCK): 96%
- remaining binding at 1 µM (CDK2): 100%
- remaining binding at 1 µM (CDK11): 90%
- remaining binding at 1 µM (YANK3): 95%
- remaining binding at 1 µM (TSSK1B): 100%
- remaining binding at 1 µM (CDK7): 100%
- remaining binding at 1 µM (DCAMKL1): 87%
- remaining binding at 1 µM (AKT2): 93%
- remaining binding at 1 µM (MLK1): 91%
- remaining binding at 1 µM (JNK1): 91%
- remaining binding at 1 µM (CDK9): 100%
- remaining binding at 1 µM (TNK1): 90%
- remaining binding at 1 µM (SRC): 98%
- remaining binding at 1 µM (ROCK2): 100%
- remaining binding at 1 µM (PCTK1): 94%
- remaining binding at 1 µM (CSNK1D): 88%
- remaining binding at 1 µM (PAK4): 62%
- remaining binding at 1 µM (KIT(D816H)): 90%
- remaining binding at 1 µM (PIK3CA): 100%
SMILES: Cc1nc2ccc(-c3ccnc4ccccc34)c(C)c2c(=O)[nH]1 [compound 21, 2,5-Dimethyl-6-(quinolin-4-yl)quinazolin-4(3H)-one]
